Data as given in US11814376B2, “Hepatitis b core protein modulators” (Assembly Biosciences, Inc., priority 2015, dated 2023).
Where a name gives a salt, the structure may show the parent alone.

Experiments:
AD38 cells = assay: Viability of AD38 cells (Promega CellTiter-Glo); type: cell-based; details: 10 μM compound, 6 days, CellTiter-Glo luminescence normalized to DMSO control (100%)
Method: (§1) Example 2: Assay Measuring Activity of Compounds on Viral Production in and on Viability of AD38 Cells
(§2) AD38 cells were then re-suspended with 10 mL of Treatment Medium and counted. Wells of a collagen coated 96-well NUNC microtiter plate were seeded at 50,000/well in 180 μL of Treatment Medium, and 20 μL of in treatment media with either 10% DMSO (Control) or a 10× solution of compound in 10% DMSO was added. Plates were incubated for 6 days at 37° C.
At the end of compound treatment period cell viability was assessed using a Promega CellTiter-Glo protocol. All supernatant was removed the previously treated 96-well microtiter plate, and 50 μL Tetracycline-free treatment medium (DMEM/F12 (1:1), 1× Pen/step (cat #: 30-002-CL, Mediatech, Inc), with 2% FBS, Tet-system approved (cat #: 631106, Clontech), and 1% DMSO was added back to each well. Another 50 μL of CellTiter-Glo reagent solution (Promega, G7573) was then added at room temperature and the contents mixed for 2 minutes on an orbital shaker to induce cell lysis. This was followed by incubation at room temperature for 10 minutes to stabilize the luminescent signal. The luminescence was recorded for 0.2 seconds per well on a Tecan multimode plate reader (Infinite M1000 pro). The luminescent signal from each well was normalized against that of untreated (DMSO) control wells. All results were reported percent viability (with controls being 100%).

[1] = test system: HBV viral load in AD38 cells; assay: Viral load production in AD38 cells, quantitative PCR of the core sequence in supernatant; type: cell-based; details: Hepatitis B virus, 144 h, 10 μM compound, 6 days at 37° C., supernatant qPCR, relative to DMSO control; read-out: AD38 Viral Load (%) (VL with cmpd/VL in DMSO control) at 10 μM
Method: as §1, §2
Viral load production was assayed by quantitative PCR of the core sequence. […] The PCR mixture was incubated at 45° C. for 5 minutes, then 95° C. for 10 min, followed by 40 cycles of 10 seconds at 95° C. and 20 seconds at 60° C. Viral load was quantitated against known standards by using ViiA™ 7 Software. Viral load in the supernatant from wells with treated cells were compared against viral load in supernatant from DMSO control wells (>3 per plate).

| SMILES | AD38 Viability Normalized Result (cmpd/DMSO %) at 10 μM (AD38 cells) | activity at 10 µM [1] |
| --- | --- | --- |
| CN(C)CCCCc1ccc(-c2ncc(CNC(=O)c3ccc4c(c3)NC(=O)c3ccccc3S4(=O)=O)s2)cc1 [compound 11005, N-((2-(4-(4-(dimethylamino)butyl)phenyl)thiazol-5-yl)methyl)-11-oxo-10, 11-dihydrodibenzo [b, f] [1, 4] thiazepine-8-carboxamide 5,5-dioxide] | 102% | 1.9% |
| O=C(O)COc1ncc(CNC(=O)c2ccc3c(c2)NC(=O)c2ccccc2S3(=O)=O)s1 [compound 1580, 2-((5-((5,5-dioxido-11-oxo-10, 11-dihydrodibenzo [b, f] [1, 4]thiazepine-8-carboxamido)methyl)thiazol-2-yl)oxy) acetic acid] | 102% | 104% |
| Cc1c(C(=O)NCc2cnc(-n3cc(C(F)(F)F)cn3)s2)ccc2c1NC(=O)c1ccccc1S2(=O)=O [compound 11149] | 100% | 0.2% |
| O=C(NCc1cnc(-c2ccc(C#CCCN3CCOCC3)cc2)s1)c1ccc2c(c1)NC(=O)c1ccccc1S2(=O)=O [compound 11061, N-((2-(4-(4-morpholinobut-1-yn-1-yl)phenyl)thiazol-5-yl)methyl)-11-oxo-10, 11-dihydrodibenzo [b, f] [1, 4] thiazepine-8-carboxamide 5,5-dioxide] | 95% | 0.9% |
| Cc1c(C(=O)NCc2cnc(-c3cc[nH]n3)s2)ccc2c1NC(=O)c1ccccc1S2(=O)=O [compound 11152] | 96% | 1.6% |
| Cc1cc2c(cc1C(=O)NCc1cnc(C(F)(F)F)s1)NC(=O)c1ccccc1S2(=O)=O [compound 1910] | 94% | 19% |
| O=C(NCc1cnc(-c2cncnc2)s1)c1ccc2c(c1)NC(=O)c1ccccc1S2(=O)=O [compound 1626] | 99% | 2.7% |
| N#Cc1ccc(-c2ncc(CNC(=O)c3ccc4c(c3)NC(=O)c3ccccc3O4)s2)cc1 [1770-A, N-((2-(4-cyanophenyl)thiazol-5-yl)methyl)-11-oxo-10, 11-dihydrodibenzo [b, f] [1, 4] oxazepine-8-carboxamide] | 100% | 29.8% |
| COc1ccc(-c2ncc(CNC(=O)c3ccc4c(c3)NC(=O)c3ccccc3S4(=O)=O)s2)cc1 [compound 1596] | 25% | 3.8% |
| O=C(NCc1cnc(-c2ccc(OCCCN3CCC(C(=O)O)C3)cc2)s1)c1ccc2c(c1)NC(=O)c1ccccc1S2(=O)=O (stereo not shown) [compound 11107, 1-(3-(4-(5-((5,5-dioxido-11-oxo-10, 11-dihydrodibenzo [b, f] [1, 4]thiazepine-8-carboxamido)methyl)thiazol-2-yl)phenoxy)propyl) pyrrolidine-3-carboxylic acid] | 96% | 6.4% |
| N#Cc1ccc(-c2ncc(CNC(=O)c3ccc4c(c3)NC(=O)c3ccccc3S4(=O)=O)s2)cc1F [compound 1815] | 88% | 0.2% |
| CN(C)c1ccc(-c2ncc(CNC(=O)c3ccc4c(c3)NC(=O)c3ccccc3S4(=O)=O)s2)cc1 [compound 1645] | 101% | 6.7% |
| O=C(NCc1cnc(-c2cc(F)ccn2)s1)c1ccc2c(c1)NC(=O)c1ccccc1S2(=O)=O [compound 11050] | 96% | 0.7% |
| CN(C)CCOc1ncc(CN(C)C(=O)c2ccc3c(c2)NC(=O)c2ccccc2O3)s1 [compound 1686, N-((2-(2-(dimethylamino)ethoxy)thiazol-5-yl)methyl)-N-methyl-11-oxo-10, 11-dihydrodibenzo [b, f] [1, 4] oxazepine-8-carboxamide] | 102% | 58.4% |
| COc1ccc(-c2ncc(CNC(=O)c3ccc4c(c3)NC(=O)c3ccccc3O4)s2)cc1C [1736-A] | 97% | 14.1% |
| Cc1c(C(=O)NCc2cnc(C(F)(F)F)s2)ccc2c1NC(=O)c1ccccc1S2 [compound 1766] | 98% | 1.3% |

| SMILES | AD38 Viability Normalized Result (cmpd/DMSO %) at 10 μM (AD38 cells) | activity at 10 µM [1] |
| --- | --- | --- |
| Cn1ccc(-c2ncc(CNC(=O)c3ccc4c(c3)NC(=O)c3ccccc3S4(=O)=O)s2)n1 [compound 11046] | 100% | 0.9% |
| N#Cc1cccc(-c2ncc(CNC(=O)c3ccc4c(c3)NC(=O)c3ccccc3O4)s2)c1 [1714-A] | 106% | 49.2% |
| Cl.O=C(NCc1cnc(-c2ccc(O[C@@H]3CCNC3)cc2)s1)c1ccc2c(c1)NC(=O)c1ccccc1S2(=O)=O [compound 11103, (R)-11-oxo-N-((2-(4-(pyrrolidin-3-yloxy)phenyl)thiazol-5-yl)methyl)-10, 11-dihydrodibenzo [b, f] [1, 4] thiazepine-8-carboxamide 5,5-dioxide hydrochloride] | 102% | 2.5% |
| O=C(NCc1cnc(-c2ccc(OCC3CCNCC3)cc2)s1)c1ccc2c(c1)NC(=O)c1ccccc1S2(=O)=O [compound 11137, 11-oxo-N-((2-(4-(piperidin-4-ylmethoxy)phenyl)thiazol-5-yl)methyl)-10, 11-dihydrodibenzo [b, f] [1, 4] thiazepine-8-carboxamide 5,5-dioxide] | 96% | 3.6% |
| Cc1c(C(=O)NCc2cnc(-n3cccn3)s2)ccc2c1NC(=O)c1ccccc1S2 [C20-02] | 95% | 0.5% |
| CN(C)CCCCc1cnn(-c2ncc(CNC(=O)c3ccc4c(c3)NC(=O)c3ccccc3S4(=O)=O)s2)c1 [compound 11099] | 90% | 3.9% |
| NCCC#Cc1ccc(-c2ncc(CNC(=O)c3ccc4c(c3)NC(=O)c3ccccc3S4(=O)=O)s2)cc1 [compound 11002, N-((2-(4-(4-aminobut-1-yn-1-yl)phenyl)thiazol-5-yl)methyl)-11-oxo-10, 11-dihydrodibenzo [b, f] [1, 4] thiazepine-8-carboxamide 5,5-dioxide] | 90% | 0.9% |
| O=C(O)COc1ccc(-c2ncc(CNC(=O)c3ccc4c(c3)NC(=O)c3ccccc3O4)s2)cc1 [compound 1620, 2-(4-(5-((11-oxo-10, 11-dihydrodibenzo [b, f] [1, 4]oxazepine-8-carboxamido)methyl)thiazol-2-yl)phenoxy) acetic acid] | 103% | 41.9% |
| CCCCN1c2ccc(C(=O)NCc3cnc(C(F)(F)F)s3)cc2NC(=O)c2ccccc21 [compound 1922] | 39% | 60.3% |
| CC(C)(NC(=O)c1ccc2c(c1)NC(=O)c1ccccc1S2)c1cncs1 [compound 1549] | 105% | 106% |
| O=C(NCc1cnc(-c2ccc(O)cc2)s1)c1cc2c(cc1F)Sc1ccccc1C(=O)N2 [compound 1749] | 109% | 54.3% |
| CC(C)CN1c2ccc(C(=O)NCc3cnc(-c4ccc(C#N)cc4F)s3)cc2NC(=O)c2ccccc21 [compound 11044] | 124% | 5.1% |
| O=C(NCc1cnc(-c2ncco2)s1)c1ccc2c(c1)NC(=O)c1ccccc1S2(=O)=O [compound 1958] | 91% | 1.5% |
| Cc1cc(-c2ncc(CNC(=O)c3ccc4c(c3)NC(=O)c3ccccc3S4(=O)=O)s2)cc(C)c1O [compound 1806, N-((2-(4-hydroxy-3,5-dimethylphenyl)thiazol-5-yl)methyl)-11-oxo-10, 11-dihydrodibenzo [b, f] [1, 4] thiazepine-8-carboxamide 5,5-dioxide] | 105% | 0.8% |
| O=C(NCc1cnc(-c2ccc(NC(=O)C3CC3)cc2)s1)c1ccc2c(c1)NC(=O)c1ccccc1S2(=O)=O [compound 1931] | 97% | 8.5% |
| Nc1ccnc(-c2ncc(CNC(=O)c3ccc4c(c3)NC(=O)c3ccccc3S4(=O)=O)s2)c1 [compound 1888, N-((2-(4-aminopyridin-2-yl)thiazol-5-yl)methyl)-11-oxo-10,11-dihydrodibenzo [b, f] [1, 4] thiazepine-8-carboxamide 5,5-dioxide, TFA salt] | 100% | 1.2% |
